Measurements reported in ChEMBL document CHEMBL1201862, “PubChem BioAssay data set” (2004).
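Protocol summary: plate cells (96-well), add compound at 5 concentrations, incubate 48 h, interpolate endpoints linearly. GI50: concentration for 50% inhibition of growth.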 Activity calls are given as the source filed them. No stated cut-off is given here; in the data, active = GI50 up to about 1.1 µM and inactive = higher.

Legend:
Assay in all cases: NCI anticancer screen, dose series, 48 h
SF-539 = test system: SF-539
SF-295 = test system: SF-295
K562 = test system: K562
Hs-578T = test system: Hs-578T
EKVX = test system: EKVX
UACC-62 = test system: UACC-62
SK-MEL-28 = test system: SK-MEL-28
UACC-257 = test system: UACC-257
IGROV-1 = test system: IGROV-1
OVCAR-8 = test system: OVCAR-8
HOP-62 = test system: HOP-62
RXF 393 = test system: RXF 393
MDA-MB-435 = test system: MDA-MB-435
A549 = test system: A549
KM12 = test system: KM12
LOX IMVI = test system: LOX IMVI
HT-29 = test system: HT-29
NCI-H23 = test system: NCI-H23
PC-3 = test system: PC-3
NCI-H460 = test system: NCI-H460
HOP-92 = test system: HOP-92
SK-OV-3 = test system: SK-OV-3
COLO 205 = test system: COLO 205
NCI/ADR-RES = test system: NCI/ADR-RES
SNB-75 = test system: SNB-75
SK-MEL-5 = test system: SK-MEL-5
786-0 = test system: 786-0
NCI-H522 = test system: NCI-H522
BT-549 = test system: BT-549
CAKI-1 = test system: CAKI-1
UO-31 = test system: UO-31
SK-MEL-2 = test system: SK-MEL-2
HCC 2998 = test system: HCC 2998
RPMI-8226 = test system: RPMI-8226
SN12C = test system: SN12C
MOLT-4 = test system: MOLT-4
SNB-19 = test system: SNB-19
OVCAR-4 = test system: OVCAR-4
OVCAR-3 = test system: OVCAR-3
DU-145 = test system: DU-145
MDA-N = test system: MDA-N
U-251 = test system: U-251
M14 = test system: M14
HCT-15 = test system: HCT-15
SW-620 = test system: SW-620
T47D = test system: T47D
TK-10 = test system: TK-10
Malme-3M = test system: Malme-3M
ACHN = test system: ACHN
SR = test system: SR
SF-268 = test system: SF-268
MDA-MB-231 = test system: MDA-MB-231
NCI-H226 = test system: NCI-H226
OVCAR-5 = test system: OVCAR-5
HCT-116 = test system: HCT-116
MCF7 = test system: MCF7
HL-60 = test system: HL-60
CCRF-CEM = test system: CCRF-CEM

COC/C=C\[C@@]1(O)CCCC[C@@H]1CC(OC)OC
GI50 (SF-539): 48.5 µM (inactive) | GI50 (SF-295): 43.4 µM (inactive) | GI50 (K562): 11.9 µM (inactive) | GI50 (Hs-578T): 37.2 µM (inactive) | GI50 (EKVX): > 100 µM (inactive) | GI50 (UACC-62): 11.7 µM (inactive) | GI50 (SK-MEL-28): 37.4 µM (inactive) | GI50 (UACC-257): > 100 µM (inactive) | GI50 (IGROV-1): 32.5 µM (inactive) | GI50 (OVCAR-8): 29.9 µM (inactive) | GI50 (HOP-62): 36.2 µM (inactive) | GI50 (RXF 393): > 54.3 µM (inactive) | GI50 (MDA-MB-435): 28.3 µM (inactive) | GI50 (A549): 68.7 µM (inactive) | GI50 (KM12): 31 µM (inactive) | GI50 (LOX IMVI): 7.03 µM (inactive) | GI50 (HT-29): > 59.6 µM (inactive) | GI50 (NCI-H23): 39.6 µM (inactive) | GI50 (PC-3): 49.5 µM (inactive) | GI50 (NCI-H460): 33.3 µM (inactive) | GI50 (HOP-92): > 100 µM (inactive) | GI50 (SK-OV-3): > 100 µM (inactive) | GI50 (COLO 205): > 95.5 µM (inactive) | GI50 (NCI/ADR-RES): 38.2 µM (inactive) | GI50 (SNB-75): 60 µM (inactive) | GI50 (SK-MEL-5): > 94.2 µM (inactive) | GI50 (786-0): 30 µM (inactive) | GI50 (NCI-H522): 17.5 µM (inactive) | GI50 (BT-549): 64 µM (inactive) | GI50 (CAKI-1): > 100 µM (inactive) | GI50 (UO-31): 32.1 µM (inactive) | GI50 (SK-MEL-2): > 100 µM (inactive) | GI50 (HCC 2998): > 100 µM (inactive) | GI50 (RPMI-8226): 22.8 µM (inactive) | GI50 (SN12C): 17.5 µM (inactive) | GI50 (MOLT-4): 9.46 µM (inactive) | GI50 (SNB-19): 43.6 µM (inactive) | GI50 (OVCAR-4): 31.8 µM (inactive) | GI50 (OVCAR-3): 54.5 µM (inactive) | GI50 (DU-145): 38.5 µM (inactive) | GI50 (MDA-N): 33.7 µM (inactive) | GI50 (U-251): 31.8 µM (inactive) | GI50 (M14): 46.7 µM (inactive) | GI50 (HCT-15): 27.4 µM | GI50 (SW-620): 32.5 µM (inactive) | GI50 (T47D): 34.1 µM (inactive) | GI50 (TK-10): > 100 µM (inactive) | GI50 (Malme-3M): 77.4 µM (inactive) | GI50 (ACHN): 10.1 µM (inactive) | GI50 (SR): 37.3 µM (inactive) | GI50 (SF-268): 30.2 µM (inactive) | GI50 (MDA-MB-231): > 100 µM (inactive) | GI50 (NCI-H226): > 59.2 µM (inactive) | GI50 (OVCAR-5): > 100 µM (inactive) | GI50 (HCT-116): 22.7 µM (inactive) | GI50 (MCF7): 2.75 µM (inactive) | GI50 (HL-60): 6.98 µM (inactive) | GI50 (CCRF-CEM): 19.2 µM (inactive)

O=C1NC(N2CCCC(CO)C2)=N/C1=C\c1cccs1 (stereo not drawn)
GI50 (SF-539): > 100 µM (inactive) | GI50 (SF-295): > 100 µM (inactive) | GI50 (K562): > 100 µM (inactive) | GI50 (Hs-578T): > 100 µM (inactive) | GI50 (EKVX): > 100 µM (inactive) | GI50 (UACC-62): > 100 µM (inactive) | GI50 (SK-MEL-28): > 100 µM (inactive) | GI50 (UACC-257): > 100 µM (inactive) | GI50 (IGROV-1): > 100 µM (inactive) | GI50 (OVCAR-8): > 100 µM (inactive) | GI50 (HOP-62): > 100 µM (inactive) | GI50 (RXF 393): > 100 µM (inactive) | GI50 (MDA-MB-435): > 100 µM (inactive) | GI50 (A549): > 100 µM (inactive) | GI50 (KM12): > 100 µM (inactive) | GI50 (LOX IMVI): > 100 µM (inactive) | GI50 (HT-29): > 100 µM (inactive) | GI50 (NCI-H23): > 100 µM (inactive) | GI50 (PC-3): > 100 µM (inactive) | GI50 (HOP-92): > 100 µM (inactive) | GI50 (SK-OV-3): > 100 µM (inactive) | GI50 (COLO 205): > 100 µM (inactive) | GI50 (NCI/ADR-RES): > 100 µM (inactive) | GI50 (SNB-75): 98.2 µM (inactive) | GI50 (SK-MEL-5): > 100 µM (inactive) | GI50 (786-0): > 100 µM (inactive) | GI50 (NCI-H522): > 100 µM (inactive) | GI50 (BT-549): > 100 µM (inactive) | GI50 (CAKI-1): > 100 µM (inactive) | GI50 (UO-31): > 100 µM (inactive) | GI50 (SK-MEL-2): > 100 µM (inactive) | GI50 (HCC 2998): > 100 µM (inactive) | GI50 (RPMI-8226): > 100 µM (inactive) | GI50 (SN12C): > 100 µM (inactive) | GI50 (MOLT-4): > 100 µM (inactive) | GI50 (SNB-19): > 100 µM (inactive) | GI50 (OVCAR-4): > 100 µM (inactive) | GI50 (OVCAR-3): > 100 µM (inactive) | GI50 (DU-145): > 100 µM (inactive) | GI50 (MDA-N): > 100 µM (inactive) | GI50 (U-251): > 100 µM (inactive) | GI50 (M14): > 100 µM (inactive) | GI50 (HCT-15): > 100 µM | GI50 (SW-620): > 100 µM (inactive) | GI50 (T47D): > 100 µM (inactive) | GI50 (TK-10): > 100 µM (inactive) | GI50 (Malme-3M): > 100 µM (inactive) | GI50 (ACHN): > 100 µM (inactive) | GI50 (SR): > 100 µM (inactive) | GI50 (SF-268): > 100 µM (inactive) | GI50 (MDA-MB-231): > 100 µM (inactive) | GI50 (NCI-H226): > 100 µM (inactive) | GI50 (OVCAR-5): > 100 µM (inactive) | GI50 (HCT-116): > 100 µM (inactive) | GI50 (MCF7): > 100 µM (inactive) | GI50 (HL-60): > 100 µM (inactive) | GI50 (CCRF-CEM): > 100 µM (inactive)

O=c1c2ccccc2[nH]c(=S)n1-c1ccc(/N=N/c2cccc3c(O)cccc23)cc1
GI50 (SF-539): > 100 µM (inactive) | GI50 (SF-295): > 100 µM (inactive) | GI50 (K562): 36.2 µM (inactive) | GI50 (Hs-578T): > 100 µM (inactive) | GI50 (EKVX): > 100 µM (inactive) | GI50 (UACC-62): 24.4 µM (inactive) | GI50 (SK-MEL-28): > 100 µM (inactive) | GI50 (UACC-257): 50.9 µM (inactive) | GI50 (IGROV-1): 55.3 µM (inactive) | GI50 (OVCAR-8): > 100 µM (inactive) | GI50 (HOP-62): > 100 µM (inactive) | GI50 (RXF 393): > 100 µM (inactive) | GI50 (MDA-MB-435): 23 µM (inactive) | GI50 (A549): > 100 µM (inactive) | GI50 (KM12): > 100 µM (inactive) | GI50 (LOX IMVI): 39 µM (inactive) | GI50 (HT-29): > 100 µM (inactive) | GI50 (NCI-H23): > 100 µM (inactive) | GI50 (PC-3): 67.6 µM (inactive) | GI50 (NCI-H460): > 100 µM (inactive) | GI50 (HOP-92): > 100 µM (inactive) | GI50 (SK-OV-3): > 100 µM (inactive) | GI50 (COLO 205): 32 µM (inactive) | GI50 (NCI/ADR-RES): > 100 µM (inactive) | GI50 (SNB-75): > 100 µM (inactive) | GI50 (SK-MEL-5): 24.9 µM (inactive) | GI50 (786-0): > 100 µM (inactive) | GI50 (NCI-H522): > 100 µM (inactive) | GI50 (BT-549): > 100 µM (inactive) | GI50 (CAKI-1): > 100 µM (inactive) | GI50 (UO-31): > 100 µM (inactive) | GI50 (SK-MEL-2): > 100 µM (inactive) | GI50 (HCC 2998): > 100 µM (inactive) | GI50 (RPMI-8226): 65.3 µM (inactive) | GI50 (SN12C): > 100 µM (inactive) | GI50 (MOLT-4): 45.3 µM (inactive) | GI50 (SNB-19): > 100 µM (inactive) | GI50 (OVCAR-4): > 100 µM (inactive) | GI50 (OVCAR-3): 62.2 µM (inactive) | GI50 (DU-145): > 100 µM (inactive) | GI50 (MDA-N): 34.4 µM (inactive) | GI50 (U-251): 87.5 µM (inactive) | GI50 (M14): 50.8 µM (inactive) | GI50 (HCT-15): 38.5 µM | GI50 (SW-620): > 100 µM (inactive) | GI50 (T47D): > 100 µM (inactive) | GI50 (TK-10): > 100 µM (inactive) | GI50 (Malme-3M): 88.9 µM (inactive) | GI50 (ACHN): 88.3 µM (inactive) | GI50 (SR): 74.5 µM (inactive) | GI50 (SF-268): > 100 µM (inactive) | GI50 (MDA-MB-231): 53.3 µM (inactive) | GI50 (NCI-H226): > 100 µM (inactive) | GI50 (OVCAR-5): 76.7 µM (inactive) | GI50 (HCT-116): > 100 µM (inactive) | GI50 (MCF7): 13.5 µM (inactive) | GI50 (HL-60): 54.8 µM (inactive) | GI50 (CCRF-CEM): > 100 µM (inactive)
